Measurements reported in US20040192641A1, “Special preparation of anticancer drugs made by novel nanotechnology” (priority 2003, published 2004).

Key:
[1] = test system: stem cells of bone marrow; assay: Hemopoietic system: CFU-S in mice treated with cyclophosphamide; format: in vivo; settings: mice treated with CY with or without PK
Source text: Effects of PK on hemopoietic system were investigated.

peritoneal macrophage = assay: Phagocytosis of peritoneal macrophage (chick red blood cells); format: in vivo, mice; settings: macrophages with phagocytized chick red blood cells per 100; PK 25 mg/kg i.p. daily 5 days, CY 4.5 mg/kg
Protocol: (§1) Male mice weight 18-20 g were used in the experiments and were divided into treated (PK) and control groups. The dosage of PK was 25 mg/kg injected intraperitoneally. The control mice were injected with same volume of normal saline. These injections were repeated daily for 5 days, both treated and control group were injected intraperitoneally with CY. The dosage of CY is 4.5 mg/kg.
Added 0.02 ml of 5% washed chick red blood cell suspension to 0.5 ml of the peritoneal exudates. Shook gently to mix and incubate at 37° C. for 5 minutes. Dipped two cover slips, closed to each other, in the above mixture and incubated for 30 minutes for the migration of the macrophages along the cover slips, fixed and stained with Sharma stain. Examined microscopically for:
Phagocytic rate—number of macrophages with phagocytized chick red blood cells per 100 macrophages counted. Concentration of PK and CY is the same as Example 2. Pharmacological effects are as illustrated by the following table.

white blood cells = assay: White blood cells assay; format: in vivo, mice; settings: time of treatment 10 days
Protocol: as §1
Action of PK and CY on white blood cells was investigated by means of white blood cells assay. PK protected white blood cells and phagocytosis from the killing effect of CY. The dosage of PK and CY is the same as in Example 4. Time of treatment is 10 days.

lymphocytes = assay: Lymphoblastic transformation, 3H-TdR liquid scintillation assay; format: in vivo, mice; settings: 3H-TdR incorporation; PK and CY as in Example 4
Protocol: By means of ^3H-TdR liquid scintillation assay technique, the action of PK on lymphoblastic transformation was investigated method:
(1) Experimental procedure of animal is the same as in Example 4.
(2) Lemphoblastic transformation test:
I. Reagents and Conditions for Cell Culture
a. Culture media—RPMI 1640, medium 199 minimal essential medium (Eagle).
b. Buffer—Hepes buffer, the final concentration at 37° C. was 25 mM, to maintain the pH of the medium at 7.31.
c. Serum—generally 15-205 fetal bovine serum was incorporated, for lymphocytes from mice, 5% was used.
d. Gaseous phase—5% CO2 in air.
e. Cell concentration—generally 1-2 c 10^6/ml.
f. Stimulants—20 μl/ml for phytohemagglutinin containing polysaccharide (PHA-M) or 10 μl/ml for polysaccharide-free purified phytohemagglutinin (PHA-P).
II. Measured by Liquid Scintillation
a. The conditions of cell culture are same as above. ^3H-TdR was added after 48 hours of incubation at a final concentration of 1 μCi/ml and continued the incubation for 24 hours.
b. Washed the cells twice with cold normal saline and the erythrocytes were lysed. The intact lymphocytes were again washed once with cold saline. Spun down the lymphocytes and added 2 ml of 10% trichloroacetic acid to precipitate the protein. Washed twice with normal saline. […]
c. Added 4 ml of scintillation fluid to 0.1 ml of the final sample and counted in a liquid scintillation counter. […]

Interleukin-2 (rIL-2) = assay: Effect on Interleukin-2; format: in vivo, mice; settings: PK and CY as in Example 4
Source text: The method of determination rIL-2 was as same as Example 4.

[2] = Radiolabelled nanoparticle experiment: circulation of 3H-HHT in blood; format: in vivo, mice
Protocol: Mice were used in this experiment. […]
After injection of radioactive ^3H-HHT or PK-^3H-HHT-NP, blood-associated radioactivity was determined.
1 ml of sample of blood was ultracentrifuged at 100,000×g for 1 hour. After discarding the supernatant, the sediment was dispersed again by mechanical stirring in 1.5 ml of distilled water. 100 μl of the sediment or supernatant were then added to 10 ml of scintillation liquid solution. After weighing, the radioactivity of the tissue samples was measured by a scintillation counter.

SMILES	Mean (CFU-S ± SD) [1]	Phagocytic (rate ± SD) (peritoneal macrophage)	Phagocytic (rate ± SD) (white blood cells)	CPM ± SD (lymphocytes)	IL-2 (U/ml) (Interleukin-2 (rIL-2))	Circulation 3H-HHT in blood ([2]; 1 hour after administration)	Circulation 3H-HHT in blood ([2]; 8 hours after administration)	Circulation 3H-HHT in blood ([2]; 24 hours after administration)
O=P1(N(CCCl)CCCl)NCCCO1 (centres unmarked) [CY, cyclophosphamide]	7.6 ± 1.1	8.5 ± 0.90	6.0 ± 0.70	600 ± 65 CPM	47.5 ± 5.5 U/ml	–	–	–
COC(=O)C[C@](O)(CCCC(C)(C)O)C(=O)O[C@@H]1C(OC)=C[C@]23CCCN2CCc2cc4c(cc2[C@H]13)OCO4 [^3H-HHT (free)]	–	–	–	–	–	2400 cpm	90 cpm	60 cpm
